Experimental data as given in patent US12642777B2 (SHENZHEN CHINA RESOURCES JIUCHUANG MEDICAL AND …, priority 2020, dated 2026).

Assays:
[1] = Pharmacokinetics and tolerated dose of intravenous mitoxantrone chemotherapy reported in a document; format: in vivo, human; conditions: 75 mg/m^2 intravenous bolus versus 3143 ng×min/ml
Method: Moreover, the drug is metabolized rapidly after entering the blood, and the drug in the plasma is almost completely metabolized 60 min, 120 min at most, after the administration.

[2] = intravenous bolus, 75 mg/m^2, ovarian cancer; cited from earlier work

Q: For O=C1c2c(O)ccc(O)c2C(=O)c2c(NCCNCCO)ccc(NCCNCCO)c21 [mitoxantrone], which “AUC of the document as multiple of the maximum AUC in the present trial” value [1] is on record?
A: Its value is 10.7-32.5 times.

Q: And the AUC [2]?
A: The AUC was 560 to 1700 ng·h/mL.
